Reference: publication PMC8300687, “A Fine-Tuned Lipophilicity/Hydrophilicity Ratio Governs Antibacterial Potency and Selectivity of Bifurcated Halogen Bond-Forming NBTIs” (Antibiotics, 2021)
Values after ≈ are worked out from the molar mass of the structure shown. Read-outs that look alike come from different tables or passages of the source.

Experiments:
[1] = tested on: E. coli (QA-11.8); test: MIC broth microdilution, E. coli QA-11.8; assay type: cell-based
Procedure: (§1) Antimicrobial testing was carried out by the broth microdilution method in 96-well plate format following the Clinical and Laboratory Standards Institute (CLSI) guidelines and European Committee on Antimicrobial Susceptibility Testing (EUCAST) recommendations. Bacterial suspension of specific bacterial strain equivalent to 0.5 McFarland turbidity standard was diluted with cation-adjusted Mueller Hinton broth with TES (Thermo Fisher Diagnostic, Landsmeer, The Netherlands), to obtain a final inoculum of 10^5 CFU/mL. Compounds dissolved in DMSO and inoculum were mixed together and incubated for 18–20 h at 35 °C. Suspensions of Mycobacterium sp. were prepared into a tube of Middelbrook 7H9 broth supplemented with 5% OADC (Thermo Scientific, Trek Diagnostic Systems, West Sussex, UK) and incubated for at least 10 days. After incubation the minimal inhibitory concentration (MIC) values were determined by visual inspection as the lowest dilution of compounds showing no turbidity. Tetracycline was used as a positive control on every assay plate.

[2] = tested on: E. coli (ATCC 25922); test: MIC broth microdilution, E. coli ATCC 25922; assay type: cell-based
Procedure: as §1

[3] = tested on: S. aureus (ATCC 29213); test: MIC broth microdilution, S. aureus ATCC 29213; assay type: cell-based
Procedure: as §1

[4] = tested on: MRSA (QA-11.2); test: MIC broth microdilution, MRSA QA-11.2; assay type: cell-based, methicillin-resistant S. aureus; conditions: Staphylococcus aureus, 20 h, read-out: MIC MRSA (QA-11.2)
Procedure: as §1

[5] = molecular target: T1, E. coli Topo IV (Escherichia coli, UniProt P0AFI2); test: Topo IV Relaxation High Throughput Plate assay, E. coli; assay type: biochemical; conditions: for LE Topo IV E. coli: LE = (1.37/HA) × pIC50
T1 construct: purchased Inspiralis (Norwich, UK)
T1 sequence (P0AFI2 whole entry): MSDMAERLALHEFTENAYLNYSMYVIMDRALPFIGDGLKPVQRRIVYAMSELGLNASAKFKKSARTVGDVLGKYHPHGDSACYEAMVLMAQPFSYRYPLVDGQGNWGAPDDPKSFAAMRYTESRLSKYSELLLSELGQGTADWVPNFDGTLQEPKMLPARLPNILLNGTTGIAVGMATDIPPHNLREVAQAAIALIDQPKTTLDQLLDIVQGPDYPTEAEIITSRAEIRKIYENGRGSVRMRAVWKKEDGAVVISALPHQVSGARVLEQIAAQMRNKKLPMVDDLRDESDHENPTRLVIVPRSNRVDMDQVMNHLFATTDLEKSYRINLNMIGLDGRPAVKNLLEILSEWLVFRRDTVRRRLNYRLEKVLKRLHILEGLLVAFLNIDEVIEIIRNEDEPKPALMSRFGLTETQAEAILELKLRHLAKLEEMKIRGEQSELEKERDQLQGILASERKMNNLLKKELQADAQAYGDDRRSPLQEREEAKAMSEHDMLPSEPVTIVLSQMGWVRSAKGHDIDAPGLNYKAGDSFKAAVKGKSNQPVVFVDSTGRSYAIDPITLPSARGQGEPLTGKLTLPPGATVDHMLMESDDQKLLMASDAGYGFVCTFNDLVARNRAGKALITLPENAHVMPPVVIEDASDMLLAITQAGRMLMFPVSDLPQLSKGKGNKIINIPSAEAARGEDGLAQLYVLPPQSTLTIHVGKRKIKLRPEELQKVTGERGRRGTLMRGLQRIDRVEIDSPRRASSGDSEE
T1 sequence (P20083 whole entry, further chain): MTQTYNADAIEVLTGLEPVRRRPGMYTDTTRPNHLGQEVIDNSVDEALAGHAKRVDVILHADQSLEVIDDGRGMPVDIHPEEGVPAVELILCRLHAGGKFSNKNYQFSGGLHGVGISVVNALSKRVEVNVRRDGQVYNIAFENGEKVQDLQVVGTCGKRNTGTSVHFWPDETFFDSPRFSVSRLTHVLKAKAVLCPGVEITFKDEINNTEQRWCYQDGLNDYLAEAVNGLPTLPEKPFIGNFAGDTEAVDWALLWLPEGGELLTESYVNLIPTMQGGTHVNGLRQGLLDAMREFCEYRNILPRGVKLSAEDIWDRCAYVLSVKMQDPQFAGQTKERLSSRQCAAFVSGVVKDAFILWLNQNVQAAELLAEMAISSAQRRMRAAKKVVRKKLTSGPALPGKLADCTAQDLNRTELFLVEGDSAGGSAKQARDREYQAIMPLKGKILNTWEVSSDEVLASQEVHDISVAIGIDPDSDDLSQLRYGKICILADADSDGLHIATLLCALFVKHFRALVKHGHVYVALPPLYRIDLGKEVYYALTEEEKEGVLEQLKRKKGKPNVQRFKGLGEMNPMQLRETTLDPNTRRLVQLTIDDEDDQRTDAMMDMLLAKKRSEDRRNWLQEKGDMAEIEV
Procedure: (§2) A Topo IV Relaxation High Throughput Plate assay kit, purchased from Inspiralis (Norwich. UK) was used to determine IC50 values of compounds on S. aureus and E. coli. […] Biotinylated oligonucleotide in wash buffer was immobilized onto the wells, and the excess oligonucleotide was washed off with wash buffer and ultrapure water. 1.5 U of S. aureus or E. coli […] enzyme was incubated together with 0.75 μg of supercoiled pNO1 plasmid as a substrate in the presence of 3 μL inhibitor solution in 10% DMSO and 0.008% Tween 20 at 37 °C for 30 min in a final reaction volume of 30 μL in dilution buffer (50 mM Tris-HCl (pH 7.5), 1 mM DTT, 1 mM EDTA, 40% (w/v) glycerol for S. aureus and 40 mM HEPES, KOH (pH 7.6), 100 mM potassium glutamate, 1 mM DTT, 1 mM EDTA, and 40% (v/v) glycerol for E. coli). The reactions were stopped by adding the TF buffer (50 mM NaOAc (pH 4.7), 50 mM NaCl, and 50 mM MgCl2) to allow the triplex formation (biotin-oligonucleotide-plasmid) for additional 30 min. Afterward, the unbound plasmid was washed off using TF buffer, and the solution of Promega Diamond dye in T10 buffer (10 mM Tris-HCl (pH 8.0), 1 mM EDTA) was added. […] IC50 value represents the mean of two to four independent measurements.

[6] = tested on: HUVEC; test: Metabolic activity assessment (cytotoxicity), HUVEC; assay type: cell-based; conditions: Homo sapiens, metabolic activity after 72 h treatment
Procedure: Cells of the HepG2 line (ATCC® HB-8065™) and HUVEC (ATCC® CRL-1730™) were cultured in Dulbecco’s Modified Eagle Medium (DMEM; Sigma-Aldrich, St. Louis, MO, USA) supplemented with 10% heat-deactivated FBS (Gibco, Grand Island, NE, USA), 2 mM L-glutamine, 100 U/mL penicillin, 100 μg/mL streptomycin (all from Sigma-Aldrich, St. Louis, MO, USA) in a humidified chamber at 37 °C and 5% CO2. The experiments were carried out on passages 7–9 for both cell lines. The tested compounds were dissolved in DMSO and further diluted in culture medium to a desired final concentration. Cells were seeded into 96-well plates at 8 × 10^4 cells/mL (100 μL/well) and incubated for 24 h to attach onto the wells. Cells were treated with 1 μM and 50 μM of each compound of interest or corresponding vehicle as control. […] The metabolic activity was assessed after 72 h treatment using the CellTiter 96 Aqueous One Solution Cell Proliferation Assay (Promega, Madison, WI, USA), in accordance with the manufacturer’s instructions. The absorbance was measured at 492 nm on an automated microplate reader BioTek Synergy HT (BioTek Instruments, Inc., Winooski, VT, USA). Data are presented as the percentage of metabolic activity of control cells stimulated with vehicle or as IC50 value (mean ± SD) from two independent experiments, each conducted in duplicate or triplicate. IC50 values were calculated by a non-linear regression model using Graph Pad Prism 7 software.

[7] = molecular target: T2, Human topoisomerase IIα (Homo sapiens, UniProt P11388); test: Human topoisomerase II Alpha Relaxation High Throughput Plate assay; assay type: biochemical; conditions: 0.5 h; residual activity of the enzyme at compound concentration 10 μM, mean ± SD; read-out: Human Topo II (% RA)
T2 construct: purchased Inspiralis (Norwich, UK)
T2 sequence (P11388 whole entry): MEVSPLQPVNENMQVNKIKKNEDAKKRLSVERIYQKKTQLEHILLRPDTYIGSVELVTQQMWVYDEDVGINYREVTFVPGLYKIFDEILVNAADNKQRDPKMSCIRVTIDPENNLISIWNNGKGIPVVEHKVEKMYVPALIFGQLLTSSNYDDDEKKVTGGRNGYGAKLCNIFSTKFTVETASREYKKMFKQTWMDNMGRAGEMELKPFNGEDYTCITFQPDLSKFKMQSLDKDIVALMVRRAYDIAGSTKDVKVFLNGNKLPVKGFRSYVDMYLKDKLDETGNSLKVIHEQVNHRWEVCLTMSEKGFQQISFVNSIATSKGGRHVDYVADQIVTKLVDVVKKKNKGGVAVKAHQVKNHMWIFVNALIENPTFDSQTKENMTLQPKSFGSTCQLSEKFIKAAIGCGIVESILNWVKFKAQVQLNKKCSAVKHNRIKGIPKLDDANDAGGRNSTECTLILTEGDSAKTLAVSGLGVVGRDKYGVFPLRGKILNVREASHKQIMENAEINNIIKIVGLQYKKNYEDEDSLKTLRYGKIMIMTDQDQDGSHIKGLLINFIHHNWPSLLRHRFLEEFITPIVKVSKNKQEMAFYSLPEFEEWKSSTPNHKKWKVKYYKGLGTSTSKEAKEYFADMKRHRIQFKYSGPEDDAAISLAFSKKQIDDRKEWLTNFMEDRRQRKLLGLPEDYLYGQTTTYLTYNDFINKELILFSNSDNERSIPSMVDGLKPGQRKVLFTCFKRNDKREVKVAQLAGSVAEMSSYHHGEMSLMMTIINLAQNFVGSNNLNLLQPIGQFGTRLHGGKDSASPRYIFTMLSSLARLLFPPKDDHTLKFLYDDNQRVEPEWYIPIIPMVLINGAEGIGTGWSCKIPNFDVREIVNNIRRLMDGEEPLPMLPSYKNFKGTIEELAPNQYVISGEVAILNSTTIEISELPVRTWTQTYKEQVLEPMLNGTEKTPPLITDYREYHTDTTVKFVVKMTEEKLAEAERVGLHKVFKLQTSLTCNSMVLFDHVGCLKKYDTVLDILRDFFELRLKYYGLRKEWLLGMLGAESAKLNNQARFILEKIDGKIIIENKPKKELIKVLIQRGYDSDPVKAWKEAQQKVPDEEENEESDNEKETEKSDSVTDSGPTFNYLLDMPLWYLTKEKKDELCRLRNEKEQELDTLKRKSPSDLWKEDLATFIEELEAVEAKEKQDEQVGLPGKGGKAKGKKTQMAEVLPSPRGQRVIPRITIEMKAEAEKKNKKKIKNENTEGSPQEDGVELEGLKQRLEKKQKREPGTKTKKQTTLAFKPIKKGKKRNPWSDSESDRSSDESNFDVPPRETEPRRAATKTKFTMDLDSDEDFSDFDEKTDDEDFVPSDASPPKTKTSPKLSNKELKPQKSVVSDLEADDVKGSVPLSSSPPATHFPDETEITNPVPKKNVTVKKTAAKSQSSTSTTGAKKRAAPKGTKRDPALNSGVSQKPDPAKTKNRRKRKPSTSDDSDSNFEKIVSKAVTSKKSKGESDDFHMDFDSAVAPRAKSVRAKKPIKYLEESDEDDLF
Procedure: A Human topoisomerase II Alpha Relaxation High Throughput Plate assay kit, purchased from Inspiralis (Norwich, UK) was used to evaluate the selectivity of compounds for the bacterial enzymes over the homologous human topoisomerase II. […] Biotinylated oligonucleotide in wash buffer was immobilized onto the wells and the excess oligonucleotide was washed off with wash buffer. […] The reactions were stopped by adding the TF buffer (50 mM NaOAc (pH 4.7), 50 mM NaCl, and 50 mM MgCl2) to allow the triplex formation (biotin-oligonucleotide-plasmid) for additional 30 min. Afterward, the unbound plasmid was washed off using TF buffer, and the solution of Promega Diamond dye in T10 buffer (10 mM Tris-HCl (pH 8.0), 1 mM EDTA) was added. […] Screening was performed at inhibitor concentrations of 10 μM. Raw data were converted to mean ± SD percentage of residual activity of the enzyme obtained by two independent measurements.

[8] = tested on: MRSA (QA-11.4); test: MIC broth microdilution, MRSA QA-11.4; assay type: cell-based, methicillin-resistant S. aureus; conditions: Staphylococcus aureus, 20 h, read-out: MIC MRSA (QA-11.4)
Procedure: as §1

[9] = tested on: E. coli (QA-11.7); test: MIC broth microdilution, E. coli QA-11.7; assay type: cell-based; conditions: Escherichia coli, 20 h, read-out: MIC E. coli (QA-11.7)
Procedure: as §1

[10] = molecular target: T3, S. aureus Topo IV (Staphylococcus aureus, UniProt Q2FYS4); test: biochemical; conditions: for IC50: mean of two to four measurements, read-out: Topoisomerase IV IC50 S. aureus
T3 construct: purchased Inspiralis (Norwich, UK)
T3 sequence (Q2FYS5 whole entry): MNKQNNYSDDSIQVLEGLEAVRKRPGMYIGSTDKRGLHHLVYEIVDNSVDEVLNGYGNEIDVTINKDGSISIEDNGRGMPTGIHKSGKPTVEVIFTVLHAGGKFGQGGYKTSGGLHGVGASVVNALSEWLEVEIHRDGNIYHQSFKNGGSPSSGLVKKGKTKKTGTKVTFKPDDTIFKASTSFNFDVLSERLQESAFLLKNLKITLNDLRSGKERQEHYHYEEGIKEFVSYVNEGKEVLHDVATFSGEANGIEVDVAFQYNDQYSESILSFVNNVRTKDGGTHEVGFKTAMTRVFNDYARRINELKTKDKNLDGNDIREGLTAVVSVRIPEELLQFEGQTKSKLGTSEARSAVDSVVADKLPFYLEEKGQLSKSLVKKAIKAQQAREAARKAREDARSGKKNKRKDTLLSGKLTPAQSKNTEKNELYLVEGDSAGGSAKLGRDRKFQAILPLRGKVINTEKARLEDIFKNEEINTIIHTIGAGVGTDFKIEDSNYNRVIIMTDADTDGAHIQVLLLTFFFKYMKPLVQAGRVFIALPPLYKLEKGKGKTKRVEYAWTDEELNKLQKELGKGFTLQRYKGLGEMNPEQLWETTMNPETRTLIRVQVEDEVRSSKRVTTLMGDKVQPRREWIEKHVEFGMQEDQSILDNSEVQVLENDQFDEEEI
T3 sequence (Q2FYS4 whole entry): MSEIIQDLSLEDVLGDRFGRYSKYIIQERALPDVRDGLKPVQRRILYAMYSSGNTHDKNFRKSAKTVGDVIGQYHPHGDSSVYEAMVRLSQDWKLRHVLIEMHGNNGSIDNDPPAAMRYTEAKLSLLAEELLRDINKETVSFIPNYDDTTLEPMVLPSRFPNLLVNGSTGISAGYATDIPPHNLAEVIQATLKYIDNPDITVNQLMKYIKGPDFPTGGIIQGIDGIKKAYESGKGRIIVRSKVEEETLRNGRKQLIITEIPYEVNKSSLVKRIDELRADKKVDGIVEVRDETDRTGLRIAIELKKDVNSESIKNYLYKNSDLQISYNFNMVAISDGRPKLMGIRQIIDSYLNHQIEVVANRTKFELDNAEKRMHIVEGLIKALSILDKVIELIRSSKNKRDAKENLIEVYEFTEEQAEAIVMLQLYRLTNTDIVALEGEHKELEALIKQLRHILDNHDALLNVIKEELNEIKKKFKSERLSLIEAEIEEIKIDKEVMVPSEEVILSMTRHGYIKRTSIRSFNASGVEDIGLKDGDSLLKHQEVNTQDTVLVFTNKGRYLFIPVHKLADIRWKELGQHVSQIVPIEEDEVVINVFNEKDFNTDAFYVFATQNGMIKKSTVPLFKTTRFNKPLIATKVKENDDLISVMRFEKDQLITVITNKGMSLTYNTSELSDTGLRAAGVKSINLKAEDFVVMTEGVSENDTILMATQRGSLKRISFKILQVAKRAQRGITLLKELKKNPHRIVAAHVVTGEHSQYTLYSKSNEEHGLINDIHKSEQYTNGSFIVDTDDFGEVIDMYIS
Procedure: as §2

[11] = Escherichia coli, 20 h; read-out: MIC E. coli (QA-11.8)
[12] = Escherichia coli, ATCC25922; read-out: MIC E. coli (ATCC 25922)
[13] = Staphylococcus aureus, ATCC29213; S. aureus ATCC 29213; read-out: S. aureus MIC (converted)
[14] = Staphylococcus aureus, ATCC29213; read-out: MIC S. aureus (ATCC 29213)
[15] = resistant to cefoxitin, chloramphenicol, clindamycin, linezolid, tetracycline, thiamulin, trimethoprim
[16] = multi-resistant isolate (ampicillin, azithromycin, cefotaxime, ertapenem, imipenem and others)
[17] = Escherichia coli, ATCC25922; E. coli ATCC 25922; read-out: E. coli MIC (converted)

| SMILES | MIC [1, 11] | MIC [2, 12] | MIC [3, 13] | MIC [3, 14] | MIC [4, 15] | IC50 [5] | LE Topo IV E. coli [5] | IC50 [6] | remaining activity at 10 µM [7] | MIC ([8]; resistant to cefoxitin) | MIC [9, 16] | IC50 [10] | MIC [2, 17] | other results |
| --- | --- | --- | --- | --- | --- | --- | --- | --- | --- | --- | --- | --- | --- | --- |
| COc1ccc2nccc(CCN3CCC(NCc4nc5ccccc5n4C)CC3)c2n1 [Compound 3, 1-(2-(6-Methoxy-1,5-naphthyridin-4-yl)ethyl)-N-((1-methyl-1H-benzo[d]imidazol-2-yl)methyl)piperidin-4-amine] | 64 µg/mL (≈ 149 µM) | > 128 µg/mL | 2.32 µM | 1 µg/mL | 4 µg/mL (≈ 9.29 µM) | 1.18 ± 0.09 µM | 0.25 | > 50 µM | 94.7 ± 4.82% | 4 µg/mL (≈ 9.29 µM) | 64 µg/mL (≈ 149 µM) | > 100 µM | – | MIC ([2]; Escherichia coli, ATCC25922, 20 h; E. coli ATCC 25922; read-out: E. coli MIC (converted)): 297 µM |
| COc1ccc2nccc(CCN3CCC(NCc4cnn(-c5ccc(F)cc5)c4)CC3)c2n1 [Compound 4, N-((1-(4-Fluorophenyl)-1H-pyrazol-4-yl)methyl)-1-(2-(6-methoxy-1,5-naphthyridin-4-yl)ethyl)piperidin-4-amine] | 16 µg/mL (≈ 34.7 µM) | 32 µg/mL | 4.34 µM | 2 µg/mL | 8 µg/mL (≈ 17.4 µM) | 0.12 ± 0.01 µM | 0.28 | 9.64 ± 0.03 µM | 88.41 ± 0.15% | 8 µg/mL (≈ 17.4 µM) | 16 µg/mL (≈ 34.7 µM) | > 100 µM | 69.5 µM | – |
| COc1ccc2nccc(CCN3CCC(NCc4cnn(-c5ccccc5)c4)CC3)c2n1 [Compound 5, 1-(2-(6-Methoxy-1,5-naphthyridin-4-yl)ethyl)-N-((1-phenyl-1H-pyrazol-4-yl)methyl)piperidin-4-amine] | 2 µg/mL (≈ 4.52 µM) | 16 µg/mL | 0.57 µM | 0.25 µg/mL | 1 µg/mL (≈ 2.26 µM) | 0.085 ± 0.002 µM | 0.29 | 10.7 ± 0.01 µM | 82.1 ± 2.52% | 1 µg/mL (≈ 2.26 µM) | 2 µg/mL (≈ 4.52 µM) | 29.6 ± 0.54 µM | 36.1 µM | LE Topo IV S. aureus ([10]; LE = (1.37/HA) × pIC50): 0.19 |
| COc1ccc2nccc(CCN3CCC(NCc4c(C)nc5c(C)cccn45)CC3)c2n1 [Compound 6, N-((2,8-Dimethylimidazo[1,2-a]pyridin-3-yl)methyl)-1-(2-(6-methoxy-1,5-naphthyridin-4-yl)ethyl)piperidin-4-amine] | – | – | – | – | – | > 100 µM | – | > 50 µM | 99.4 ± 9.93% | – | – | > 100 µM | – | MIC ([1]; Escherichia coli, 20 h, read-out: MIC E. coli (QA-11.8)): > 128 µg/mL; MIC ([2]; Escherichia coli, ATCC25922, 20 h, read-out: E. coli MIC in molar): 288 µM; MIC ([2]; Escherichia coli, ATCC25922, read-out: MIC E. coli (ATCC 25922)): > 128 µg/mL; MIC ([3]; Staphylococcus aureus, ATCC29213, read-out: MIC S. aureus (ATCC 29213)): > 128 µg/mL; MIC ([3]; Staphylococcus aureus, ATCC29213, read-out: S. aureus MIC in molar): 288 µM; MIC [4]: > 128 µg/mL; MIC [8]: > 128 µg/mL; MIC [9]: > 128 µg/mL |
| COc1ccc2nccc(CCN3CCC(NCc4cnn(-c5ccccc5)n4)CC3)c2n1 [Compound 8, 1-(2-(6-Methoxy-1,5-naphthyridin-4-yl)ethyl)-N-((2-phenyl-2H-1,2,3-triazol-4-yl)methyl)piperidin-4-amine] | 32 µg/mL (≈ 72.1 µM) | 64 µg/mL | 1.13 µM | 0.5 µg/mL | 0.5 µg/mL (≈ 1.13 µM) | 0.21 µM | 0.28 | 39.4 ± 5.47 µM | 94.2 ± 2.9% | 1 µg/mL (≈ 2.25 µM) | 4 µg/mL (≈ 9.02 µM) | > 100 µM | 144 µM | – |
| COc1ccc2nccc(CCN3CCC(NCc4ccc(I)cc4)CC3)c2n1 [Compound 15] | 0.25 µg/mL (≈ 0.498 µM) | 2 µg/mL | – | 0.0078 µg/mL | 0.0312 µg/mL (≈ 0.0622 µM) | – | – | – | 88.3 ± 3.33% | 0.0625 µg/mL (≈ 0.124 µM) | 1 µg/mL (≈ 1.99 µM) | – | 3.98 µM | MIC ([2]; Escherichia coli, ATCC25922; range over E. coli strains; read-out: MIC E. coli): 0.25 to 2 µg/mL; S. aureus MIC in molar ([3]; S. aureus ATCC 29213): 0.016 µM; MIC ([3]; Staphylococcus aureus, ATCC29213, 20 h; S. aureus ATCC 29213; read-out: S. aureus MIC (converted)): 0.01 µM; IC50 ([5]; mean of two to four measurements, read-out: Topoisomerase IV IC50 E. coli): 0.021 ± 0.001 µM; IC50 ([6]; 72 h): ~20 µM |
